# According to PubChem BioAssay (NCI):
#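 Briefly, cells in 96-well plates were exposed to five compound concentrations for 48 h, and endpoints were estimated by linear interpolation. Here, GI50 denotes the concentration required for 50% inhibition of growth. TGI is the concentration that stops growth completely.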
# Assays:
# Test in all cases: inhibition of tumour cell growth, NCI panel, 48 h
# NCI-H460 lung = test system: NCI-H460 lung
# RPMI-8226 leukemia = test system: RPMI-8226 leukemia
# SNB-75 CNS = test system: SNB-75 CNS
# SF-295 CNS = test system: SF-295 CNS
# NCI-H522 lung = test system: NCI-H522 lung
# RXF 393 renal = test system: RXF 393 renal
# MDA-MB-435 = test system: MDA-MB-435
# SK-MEL-2 melanoma = test system: SK-MEL-2 melanoma
# KM12 colon = test system: KM12 colon
# SK-MEL-5 melanoma = test system: SK-MEL-5 melanoma
# SK-OV-3 ovarian = test system: SK-OV-3 ovarian
# MCF7 breast = test system: MCF7 breast
# HCT-116 colon = test system: HCT-116 colon
# LOX IMVI melanoma = test system: LOX IMVI melanoma
# UACC-62 melanoma = test system: UACC-62 melanoma
# SF-539 CNS = test system: SF-539 CNS
# HS 578T breast = test system: HS 578T breast
# A498 renal = test system: A498 renal
# HCC-2998 colon = test system: HCC-2998 colon
# T-47D breast = test system: T-47D breast
# MDA-MB-231 breast = test system: MDA-MB-231 breast
# OVCAR-3 ovarian = test system: OVCAR-3 ovarian
# OVCAR-4 ovarian = test system: OVCAR-4 ovarian
# OVCAR-8 ovarian = test system: OVCAR-8 ovarian
# SW-620 colon = test system: SW-620 colon
# PC-3 prostate = test system: PC-3 prostate
# UO-31 renal = test system: UO-31 renal
# SR leukemia = test system: SR leukemia
# IGROV1 ovarian = test system: IGROV1 ovarian
# UACC-257 melanoma = test system: UACC-257 melanoma
# NCI/ADR-RES ovarian = test system: NCI/ADR-RES ovarian
# HT29 colon = test system: HT29 colon
# EKVX NSCLC = test system: EKVX NSCLC
# HOP-92 NSCLC = test system: HOP-92 NSCLC
# SK-MEL-28 melanoma = test system: SK-MEL-28 melanoma
# A549 NSCLC = test system: A549 NSCLC
# NCI-H226 lung = test system: NCI-H226 lung
# OVCAR-5 ovarian = test system: OVCAR-5 ovarian
# U251 CNS = test system: U251 CNS
# ACHN renal = test system: ACHN renal
# 786-0 renal = test system: 786-0 renal
# NCI-H23 lung = test system: NCI-H23 lung
# M14 melanoma = test system: M14 melanoma
# MALME-3M melanoma = test system: MALME-3M melanoma
# HCT-15 colon = test system: HCT-15 colon
# HOP-62 NSCLC = test system: HOP-62 NSCLC
# CCRF-CEM leukemia = test system: CCRF-CEM leukemia
# SF-268 CNS = test system: SF-268 CNS
# HL-60(TB) leukemia = test system: HL-60(TB) leukemia
# SN12C renal = test system: SN12C renal
# BT-549 breast = test system: BT-549 breast
# CAKI-1 renal = test system: CAKI-1 renal
# TK-10 renal = test system: TK-10 renal
# K-562 leukemia = test system: K-562 leukemia
# DU-145 prostate = test system: DU-145 prostate
# SNB-19 CNS = test system: SNB-19 CNS
structure (smiles),measurement,setting,value
CCOc1ccc(NC(=O)/C(=N\N)C(C(=O)OC)c2nc3ccc(Cl)cc3[nH]c2=O)cc1 (stereo not drawn),TGI,NCI-H460 lung,> 100 µM
same,TGI,RPMI-8226 leukemia,> 100 µM
same,TGI,SNB-75 CNS,> 100 µM
same,TGI,SF-295 CNS,> 100 µM
same,TGI,NCI-H522 lung,> 100 µM
same,TGI,RXF 393 renal,> 100 µM
same,TGI,MDA-MB-435,> 100 µM
same,TGI,SK-MEL-2 melanoma,> 100 µM
same,TGI,KM12 colon,> 100 µM
same,TGI,SK-MEL-5 melanoma,> 100 µM
same,TGI,SK-OV-3 ovarian,> 100 µM
same,TGI,MCF7 breast,> 100 µM
same,TGI,HCT-116 colon,> 100 µM
same,TGI,LOX IMVI melanoma,> 100 µM
same,TGI,UACC-62 melanoma,> 100 µM
same,TGI,SF-539 CNS,> 100 µM
same,TGI,HS 578T breast,> 100 µM
same,TGI,A498 renal,> 100 µM
same,TGI,HCC-2998 colon,> 100 µM
same,TGI,T-47D breast,> 100 µM
same,TGI,MDA-MB-231 breast,> 100 µM
same,TGI,OVCAR-3 ovarian,> 100 µM
same,TGI,OVCAR-4 ovarian,> 100 µM
same,TGI,OVCAR-8 ovarian,> 100 µM
same,TGI,SW-620 colon,> 100 µM
same,TGI,PC-3 prostate,> 100 µM
same,TGI,UO-31 renal,> 100 µM
same,TGI,SR leukemia,> 100 µM
same,TGI,IGROV1 ovarian,> 100 µM
same,TGI,UACC-257 melanoma,> 100 µM
same,TGI,NCI/ADR-RES ovarian,> 100 µM
same,TGI,HT29 colon,> 100 µM
same,TGI,EKVX NSCLC,> 100 µM
same,TGI,HOP-92 NSCLC,> 100 µM
same,TGI,SK-MEL-28 melanoma,> 100 µM
same,TGI,A549 NSCLC,> 100 µM
same,TGI,NCI-H226 lung,> 100 µM
same,TGI,OVCAR-5 ovarian,> 100 µM
same,TGI,U251 CNS,> 100 µM
same,TGI,ACHN renal,> 100 µM
same,TGI,786-0 renal,> 100 µM
same,TGI,NCI-H23 lung,> 100 µM
same,TGI,M14 melanoma,> 100 µM
same,TGI,MALME-3M melanoma,> 100 µM
same,TGI,HCT-15 colon,> 100 µM
same,TGI,HOP-62 NSCLC,> 100 µM
same,TGI,CCRF-CEM leukemia,> 100 µM
same,TGI,SF-268 CNS,> 100 µM
same,TGI,HL-60(TB) leukemia,> 100 µM
same,TGI,SN12C renal,> 100 µM
same,TGI,BT-549 breast,> 100 µM
same,TGI,CAKI-1 renal,> 100 µM
same,TGI,TK-10 renal,> 100 µM
O=C(Nc1cccc(Cl)c1)Nc1cc2ncncc2cc1OCc1cccc(F)c1,GI50,SNB-75 CNS,1.81 µM
same,TGI,SNB-75 CNS,3.98 µM
same,GI50,MDA-MB-435,1.48 µM
same,TGI,MDA-MB-435,4.34 µM
same,GI50,K-562 leukemia,2.52 µM
same,TGI,K-562 leukemia,> 100 µM
same,GI50,SK-OV-3 ovarian,2.45 µM
same,TGI,SK-OV-3 ovarian,6.13 µM
same,GI50,HCT-116 colon,2.61 µM
same,TGI,HCT-116 colon,> 100 µM
same,GI50,HS 578T breast,2.62 µM
same,TGI,HS 578T breast,7.02 µM
same,GI50,A498 renal,1.75 µM
same,TGI,A498 renal,5.96 µM
same,GI50,HCC-2998 colon,3.9 µM
same,TGI,HCC-2998 colon,> 100 µM
same,GI50,T-47D breast,1.75 µM
same,TGI,T-47D breast,4.37 µM
same,GI50,MDA-MB-231 breast,2.54 µM
same,TGI,MDA-MB-231 breast,7.8 µM
same,GI50,DU-145 prostate,3.38 µM
same,TGI,DU-145 prostate,> 100 µM
same,GI50,SNB-19 CNS,2.91 µM
same,TGI,SNB-19 CNS,74.2 µM
same,GI50,OVCAR-4 ovarian,2.56 µM
same,TGI,OVCAR-4 ovarian,7.35 µM
same,GI50,OVCAR-8 ovarian,2.76 µM
same,TGI,OVCAR-8 ovarian,7.98 µM
same,GI50,NCI/ADR-RES ovarian,2.97 µM
same,TGI,NCI/ADR-RES ovarian,7.71 µM
same,GI50,HOP-92 NSCLC,1.88 µM
same,TGI,HOP-92 NSCLC,6.88 µM
same,GI50,NCI-H226 lung,2.91 µM
same,TGI,NCI-H226 lung,9.19 µM
same,GI50,OVCAR-5 ovarian,2.72 µM
same,TGI,OVCAR-5 ovarian,> 100 µM
same,GI50,U251 CNS,3.28 µM
same,TGI,U251 CNS,> 100 µM
same,GI50,786-0 renal,3 µM
same,TGI,786-0 renal,> 100 µM
same,GI50,HCT-15 colon,2.72 µM
same,TGI,HCT-15 colon,> 100 µM
same,GI50,HOP-62 NSCLC,2.1 µM
same,TGI,HOP-62 NSCLC,5.6 µM
same,GI50,BT-549 breast,2.34 µM
same,TGI,BT-549 breast,7.41 µM
same,GI50,CAKI-1 renal,3.03 µM
same,TGI,CAKI-1 renal,> 100 µM
same,GI50,TK-10 renal,2.63 µM
same,TGI,TK-10 renal,7.98 µM
